The values that follow come from patent US20230203043A1, “NOVEL IMIDAZOPYRAZINE DERIVATIVES” (Hoffmann-La Roche Inc., priority 2020, published 2023).

The test system of experiment [1] is Acinetobacter baumannii ATCC17968. The experiment in a line: Antimicrobial susceptibility testing: 90% growth inhibitory concentration (IC90) determination in Iso-Sensitest broth, OD600 growth. It counts as cell-based. The method in brief:
(§1)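 Twofold compound dilutions (e.g. 50 to 0.097 μM final) in Iso-Sensitest broth with ~5×10^(5) CFU/ml, 35±2 °C. OD600 read every 20 min over 16 h; IC90 from growth inhibition during logarithmic phase.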

Experiment [2] has as its system Acinetobacter baumannii ATCC17961. The description is as above. It counts as cell-based. The method in brief: as §1
Setting [3] is: Acinetobacter baumannii, ATCC17961, 16 h, strain ATCC 17961, OD600 growth over 16 h, read-out: A. baumannii ATCC 17961 IC90.
The mark [4] stands for this setting: strain ATCC 17978, Iso-Sensitest broth, OD600 growth over 16 h, read-out: A. baumannii ATCC 17978 IC90.
Setting [5] is: strain ATCC 17961, OD600 growth over 16 h, read-out: A. baumannii ATCC 17961 IC90.
Where [6] appears, read: Acinetobacter baumannii, ATCC17961, 16 h, read-out: A. baumannii ATCC 17961 IC90 (uM), strain ATCC 17961, OD600 growth over 16 h.

Where a name gives a salt, the structure may show the parent alone. Read-outs that look alike come from different tables or passages of the source.

With `CCc1cc(Nc2nccn3c(-c4cn(C)nc4C(F)(F)F)cnc23)ccc1C(=O)NCCOCCN` [Example 1, N-[2-(2-aminoethoxy)ethyl]-2-ethyl-4-[[3-[1-methyl-3-(trifluoromethyl)pyrazol-4-yl]imidazo[1,2-a]pyrazin-8-yl]amino]benzamide], the concentration for an effect of 90% (IC90) (in general, the concentration at which the effect reaches the 90% level) in experiment [1] (Acinetobacter baumannii, ATCC 17968 / ATCC 17978, strain ATCC 17978, Iso-Sensitest broth, OD600 growth over 16 h, read-out: A. baumannii ATCC 17978 IC90) was 0.93 µM; in experiment [2] (setting [3]) it was 0.623 µM. For “N-[2-(2- aminoethoxy)ethyl]- 2-ethyl-4-[[3- [1- (methoxymethyl)- 3- (trifluoromeethyl) pyrazol-4- yl]imidazo[1,2- a]pyrazin-8- yl]amino] benzamide formate [Example 22]”, the 90% effect concentration (IC90) in experiment [1] (setting [4]) and in experiment [2] (setting [5]) was 1.84 µM each time. Consider `CCc1cc(Nc2nccn3c(-c4cnn(CC(F)F)c4)cnc23)ccc1C(=O)NCCOCCN` [Example 21, N-[2-(2-aminoethoxy)ethyl]-4-[[3-[1-(2,2-difluoroethyl)pyrazol-4-yl]imidazo[1,2-a]pyrazin-8-yl]amino]-2-ethylbenzamide formate], for which the IC90 in experiment [1] (Acinetobacter baumannii, ATCC 17968 / ATCC 17978, 16 h, read-out: A. baumannii ATCC 17978 IC90 (uM)) turned out to be 4.43 µM.

Turning to `CCc1cc(Nc2nccn3c(-c4c[nH]nc4C(F)(F)F)cnc23)ccc1C(=O)NCCOCCN` [Example 23, N-[2-(2-aminoethoxy)ethyl]-2-ethyl-4-[[3-[3-(trifluoromeethyl) 1H-pyrazol-4-yl]imidazo[1,2-a]pyrazin-8-yl]amino] benzamide formate], the figures for the IC90 in experiment [1] (setting [4]) and in experiment [2] (setting [5]) were 0.297 µM and 0.128 µM, respectively.

Consider `Cc1cc(Nc2nccn3c(-c4cn(CC#N)nc4C(F)(F)F)cnc23)ccc1C(=O)NCC(=O)NCCN(C)C` [Example 752, 4-[[3-[1-(cyanomethyl)-3-(trifluoromethyl)pyrazol-4-yl]imidazo[1,2-a]pyrazin-8-yl]amino]-N-[2-[2-(dimethylamino)ethylamino]-2-oxo-ethyl]-2-methyl-benzamide formate], for which the concentration for an effect of 90% (IC90) in experiment [2] (setting [6]) was determined as 0.636 µM. Consider `CCc1cc(Nc2nccn3c(-c4cn(CC#N)nc4C(F)(F)F)cnc23)ccc1C(=O)NCC(=O)N1CCCC1CN` (stereo not drawn) [Example 510, N-[2-[2-(aminomethyl)pyrrolidin-1-yl]-2-oxo-ethyl]-4-[[3-[1-(cyanomethyl)-3-(trifluoromethyl)pyrazol-4-yl]imidazo[1,2-a]pyrazin-8-yl]amino]-2-ethyl-benzamide formate], for which the IC90 in experiment [2] (setting [6]) was 0.347 µM.

Consider `N#CCn1cc(-c2cnc3c(Nc4ccc(C(=O)N5CC(N)C5)c(Cl)c4)nccn23)c(C(F)(F)F)n1` [Example 100, 2-[4-[8-[4-(3-aminoazetidine-1-carbonyl)-3-chloroanilino]imidazo[1,2-a]pyrazin-3-yl]-3-(trifluoromethyl)pyrazol-1-yl]acetonitrile], for which the concentration for an effect of 90% (IC90) in experiment [2] (setting [3]) was determined as 0.1 µM.

Consider `C[C@H]1CN(C(=O)c2ccc(Nc3nccn4c(-c5c[nH]nc5C(F)(F)F)cnc34)cc2Cl)CCN1` [Example 321, [2-chloro-4-[[3-[3-(trifluoromethyl)-1H-pyrazol-4-yl]imidazo[1,2-a]pyrazin-8-yl]amino]phenyl]-[(3S)-3-methylpiperazin-1-yl]methanone], for which the concentration for an effect of 90% (IC90) in experiment [2] (setting [3]) was 0.901 µM.

As for `CCc1cc(Nc2nccn3c(-c4c[nH]nc4C(F)(F)F)cnc23)ccc1C(=O)NCCCNC(=O)[C@H]1C[C@H](N)C1` [Example 532, N-(3-((1r,3r)-3-aminocyclobutane-1-carboxamido)propyl)-2-ethyl-4-((3-(3-(trifluoromethyl)-1H-pyrazol-4-yl)imidazo [1,2-a]pyrazin-8-yl)amino)benzamide formate], in experiment [2] (setting [3]), the 90% effect concentration (IC90) turned out to be 0.245 µM.

In the case of `CCc1cc(Nc2nccn3c(-c4c[nH]nc4C(F)(F)F)cnc23)ccc1C(=O)NCCCNC(=O)[C@H](C)N` [Example 652, (S)-N-(3-(2-aminopropanamido)propyl)-2-ethyl-4-((3-(3-(trifluoromethyl)-1H-pyrazol-4-yl)imidazo [1,2-a]pyrazin-8-yl)amino)benzamide formate], the IC90 in experiment [2] (setting [6]) came out at 0.259 µM.

For the molecule `CCc1cc(Nc2nccn3c(-c4cn(CC#N)nc4C(F)(F)F)cnc23)ccc1C(=O)NCCNC(=O)N1CC[C@@H](N)C1` [Example 520, (R)-3-amino-N-(2-(4-((3-(1-(cyanomethyl)-3-(trifluoromethyl)-1H-pyrazol-4-yl)imidazo [1,2-a]pyrazin-8-yl)amino)-2-ethylbenzamido)ethyl) pyrrolidine-1-carboxamide formate], the concentration for an effect of 90% (IC90) in experiment [2] (setting [3]) was found to be 0.27 µM.

For the molecule `CCc1cc(Nc2nccn3c(-c4cn(CC#N)nc4C(F)(F)F)cnc23)ccc1C(=O)N[C@H](C)C(=O)N1CCNCC1` [Example 678, 4-[[3-[1-(cyanomethyl)-3-(trifluoromethyl)pyrazol-4-yl]imidazo[1,2-a]pyrazin-8-yl]amino]-2-ethyl-N-[(1R)-1-methyl-2-oxo-2-piperazin-1-yl-ethyl]benzamide formate], the concentration for an effect of 90% (IC90) in experiment [2] (setting [6]) turned out to be 0.321 µM.
